Our source for the Km, k cat and Concentration values is ChEMBL document CHEMBL1135160, “Development of a genetic selection for catalytic antibodies” (Bioorg Med Chem Lett, 2002).

As usually defined, the Km is the substrate concentration at which the rate is half of its maximum.

A short description of data set [1]: Kinetic parameter for rate of conversion to PABA was determined. In kind it is ADME.
For a further data set, the system named is Escherichia coli. In words: Concentration required to sustain growth of Escherichia coli HDU-78; 1-10 nM. Format: functional, organism-based.

As to `CC(=O)CC(C)(O)CCOC(=O)Nc1ccc(C(=O)O)cc1` (stereo not drawn), in data set [1], the Km worked out at 150 µM and the k cat was found to be 0.000115 s⁻¹. As for `Nc1ccc(C(=O)O)cc1`, in the data set on Escherichia coli, the Concentration stood at 10 nM.
